One experiment deals with T1, human P2X4 (Homo sapiens, UniProt Q99571).
T1 construct: expressed in transfected cells
T1 sequence (Q99571 1-388): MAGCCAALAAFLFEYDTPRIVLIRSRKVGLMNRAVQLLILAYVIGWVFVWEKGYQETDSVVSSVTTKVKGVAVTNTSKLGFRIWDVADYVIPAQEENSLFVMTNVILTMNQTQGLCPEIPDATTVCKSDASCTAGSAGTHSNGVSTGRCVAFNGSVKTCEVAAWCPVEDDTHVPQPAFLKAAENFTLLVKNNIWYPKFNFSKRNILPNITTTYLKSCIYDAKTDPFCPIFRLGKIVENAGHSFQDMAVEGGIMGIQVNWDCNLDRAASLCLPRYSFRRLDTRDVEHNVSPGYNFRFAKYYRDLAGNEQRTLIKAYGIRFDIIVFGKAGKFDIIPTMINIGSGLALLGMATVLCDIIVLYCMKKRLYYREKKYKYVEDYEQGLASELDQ
The experiment is described as follows: Human P2X4 HEK Cell FLIPR Assay. The settings on record: HEK293 stably expressing human P2X4, agonist Bz-ATP 3 μM (EC80); for IC50: read-out: Human P2X4 HEK Cells (FLIPR Assay) avg IC50. It counts as cell-based. The gist of the method:
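Compounds were preincubated 30 min at room temperature on Fluo8-AM-loaded HEK293 cells stably expressing human P2X4. The response was the calcium fluorescence rise on Bz-ATP addition.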

Another experiment concerns the target T2, rat P2X4 (Rattus norvegicus, UniProt P51577).
T2 construct: expressed in transfected cells
T2 sequence (P51577 1-388): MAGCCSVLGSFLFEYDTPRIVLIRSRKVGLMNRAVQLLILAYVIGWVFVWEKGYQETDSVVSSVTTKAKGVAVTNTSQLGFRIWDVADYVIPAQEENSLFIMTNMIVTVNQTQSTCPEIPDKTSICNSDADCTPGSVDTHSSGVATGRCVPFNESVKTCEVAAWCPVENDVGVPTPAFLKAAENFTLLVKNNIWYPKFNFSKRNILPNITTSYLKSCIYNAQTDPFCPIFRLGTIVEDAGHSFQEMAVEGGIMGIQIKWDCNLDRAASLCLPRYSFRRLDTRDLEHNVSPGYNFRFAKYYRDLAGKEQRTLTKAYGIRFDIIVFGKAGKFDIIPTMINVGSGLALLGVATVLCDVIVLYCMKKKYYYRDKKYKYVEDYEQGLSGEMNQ
The experiment is described as follows: FLIPR Method for Rat P2X4 1321N1 Astrocytoma Cells. The settings on record: 1321N1 stably expressing rat P2X4; agonist MgATP 5 μM (EC80). It counts as cell-based. Here is the method: Compounds were tested on a 1321N1 cell line stably expressing rat P2X4. Cells were cultured on collagen-I-coated 384-well plates at a density of 10,000 cells/well and incubated overnight at 37° C., 5% CO2. P2X4 function was assessed by measuring intracellular calcium fluxes caused by Magnesium-ATP (MgATP) using the calcium-chelating dye Fluo8-AM (Molecular Devices) with the Fluorescent Imaging Plate Reader Tetra (FLIPR^Tetra; Molecular Devices CA). On the day of the assay, the medium was removed and the cells were incubated for 30 minutes at 37° C. and 5% CO2 in 30 μl of dye buffer (Hank's balanced salt solution, 10 mM HEPES, 1.8 mM CaCl2, 1 mM MgCl2, 2 mM probenecid, 5 mM D-glucose monohydrate, 5 μM Fluo8-AM, pH=7.4).
Compounds diluted in probenecid buffer (Hank's balanced salt solution, 10 mM HEPES, 1.8 mM CaCl2, 1 mM MgCl2, 2 mM probenecid, 5 mM D-glucose monohydrate, pH=7.4) at ten concentrations ranging from 25 μM to 1 nM (final concentration) were dispensed and incubated for 30 minutes at room temperature. The agonist, MgATP (Sigma-Aldrich Chemie GmbH, DE), was added at a final concentration of 5 μM, representing the EC80 routinely determined. The final assay volume was 50 μl and final DMSO concentration was 0.5%.
The fluorescence intensity reflecting intracellular calcium changes was recorded before and after MgATP addition, at an excitation and emission wavelengths of 470-495 nm and 515-575 nm respectively.
The compounds were tested in triplicates and fluorescence intensity raw data normalized to the agonist control and fitted to the four-parameter logistic equation:
Y=Bottom+(Top−Bottom)/(1+10^((Log IC50−X)*HillSlope))
Assay plate acceptance was based on the signal window (S/B)[…] and the reference compound pIC50 within ±[…] the mean of historic pIC50 of the compound. Failure to meet two of the three criteria determined exclusion of the plate's results. In Table 10 below the results for the assays are reported

The results in this text go back to patent US20230257351A1, “SUBSTITUTED N-[…] HAVING P2X4 RECEPTOR ANTAGONISTIC ACTIVITY” (Bayer Aktiengesellschaft, priority 2020, published 2023).

The IC50 is the midpoint of a concentration-inhibition curve. Take `CC(=O)N(c1ccc(F)c(F)c1)c1cc(NC(=O)Cc2ccccc2Cl)ccn1` [Example 1, N-{4-[2-(2-chlorophenyl)acetamido]pyridin-2-yl}-N-(3,4-difluorophenyl)acetamide]: on human P2X4, the “Human P2X4 HEK Cells (FLIPR Assay) avg Efficacy” value (from here on “Human P2X4 HEK Cells”) came to 89% and the IC50 turned out to be 0.224 µM. At rat P2X4, the IC50 was 0.0967 µM and the “Rat P2X4 1321N1 Astrocytoma Cells (FLIPR Assay) avg Efficacy” value (shortened to “Rat P2X4 1321N1 Astrocytoma Cells”) was 82%.

Turning to `CC(=O)N(c1cccc(C(F)F)c1)c1cc(NC(=O)Cc2cccc(F)c2Cl)ccn1` [Example 4, N-{4-[2-(2-chloro-3-fluorophenyl)acetamido]pyridin-2-yl}-N-[3-(difluoromethyl)phenyl]acetamide], on human P2X4, the “Human P2X4 HEK Cells” value is 100% and the IC50 was 0.397 µM. For the same compound, on rat P2X4, the IC50 was found to be 0.855 µM and the “Rat P2X4 1321N1 Astrocytoma Cells” value turned out to be 100%.

On to `CC(=O)N(c1cccc(C(F)F)c1)c1cc(NC(=O)Cc2c(Cl)cccc2Cl)ccn1` [Example 5, N-{4-[2-(2,6-dichlorophenyl)acetamido]pyridin-2-yl}-N-[3-(difluoromethyl)phenyl]acetamide], for which, at human P2X4, the “Human P2X4 HEK Cells” value was determined as 102% and the IC50 was found to be 0.386 µM. Also, on rat P2X4, the IC50 is 0.44 µM and the “Rat P2X4 1321N1 Astrocytoma Cells” value was found to be 100%.

In the case of `CC(=O)N(c1cccc(C#N)c1)c1cc(NC(=O)Cc2ccccc2Cl)ccn1` [Example 13, N-{4-[2-(2-chlorophenyl)acetamido]pyridin-2-yl}-N-(3-cyanophenyl)acetamide], on human P2X4, the “Human P2X4 HEK Cells” value is recorded as 96% and the IC50 was 0.289 µM. In addition, on rat P2X4, the IC50 came to 0.79 µM and the “Rat P2X4 1321N1 Astrocytoma Cells” value is recorded as 93%.

On to `CC(=O)N(c1cccc(C#N)c1)c1cc(NC(=O)Cc2c(Cl)cccc2Cl)ccn1` [Example 14, N-(3-cyanophenyl)-N-{4-[2-(2,6-dichlorophenyl)acetamido]pyridin-2-yl)acetamide], for which, at human P2X4, the “Human P2X4 HEK Cells” value turned out to be 100% and the IC50 is 0.243 µM. Further, at rat P2X4, the IC50 is 0.201 µM and the “Rat P2X4 1321N1 Astrocytoma Cells” value turned out to be 98%.

Turning to `CC(=O)N(c1cccc(C#N)c1)c1cc(NC(=O)Cc2c(F)cccc2Cl)ccn1` [Example 15, N-{4-[2-(2-chloro-6-fluorophenyl)acetamido]pyridin-2-yl}-N-(3-cyanophenyl)acetamide], at human P2X4, the “Human P2X4 HEK Cells” value came out at 94% and the IC50 was 0.408 µM. In addition, on rat P2X4, the IC50 was 0.441 µM and the “Rat P2X4 1321N1 Astrocytoma Cells” value is on record as 88%.

`CC(=O)N(c1ccc(F)c(C#N)c1)c1cc(NC(=O)Cc2ccccc2Cl)ccn1` [Example 21, N-{4-[2-(2-chlorophenyl)acetamido]pyridin-2-yl}-N-(3-cyano-4-fluorophenyl)acetamide]: on human P2X4, the “Human P2X4 HEK Cells” value is on record as 91% and the IC50 came to 0.343 µM. Moreover, on rat P2X4, the IC50 was 0.374 µM and the “Rat P2X4 1321N1 Astrocytoma Cells” value amounted to 90%.

Regarding `CC(=O)N(c1ccc(F)c(C#N)c1)c1cc(NC(=O)Cc2ccc(F)cc2Cl)ccn1` [Example 22, N-{4-[2-(2-chloro-4-fluorophenyl)acetamido]pyridin-2-yl}-N-(3-cyano-4-fluorophenyl)acetamide], at human P2X4, the “Human P2X4 HEK Cells” value is listed as 98% and the IC50 was 0.482 µM. For the same compound, at rat P2X4, the IC50 stood at 0.217 µM and the “Rat P2X4 1321N1 Astrocytoma Cells” value turned out to be 95%.

On to `CC(=O)N(c1ccc(F)c(C#N)c1)c1cc(NC(=O)Cc2cccc(F)c2Cl)ccn1` [Example 23, N-{4-[2-(2-chloro-3-fluorophenyl)acetamido]pyridin-2-yl}-N-(3-cyano-4-fluorophenyl)acetamide], for which, on human P2X4, the “Human P2X4 HEK Cells” value came to 99% and the IC50 came to 0.356 µM. Moreover, at rat P2X4, the half-inhibitory concentration (IC50) was determined as 0.483 µM and the “Rat P2X4 1321N1 Astrocytoma Cells” value worked out at 96%.

As to `CC(=O)N(c1ccc(F)c(C#N)c1)c1cc(NC(=O)Cc2c(Cl)cccc2Cl)ccn1` [Example 24, N-(3-cyano-4-fluorophenyl)-N-{4-[2-(2,6-dichlorophenyl)acetamido]pyridin-2-yl}acetamide], at human P2X4, the “Human P2X4 HEK Cells” value came to 100% and the IC50 was 0.346 µM. In addition, at rat P2X4, the IC50 turned out to be 0.174 µM and the “Rat P2X4 1321N1 Astrocytoma Cells” value amounted to 99%.

Turning to `CC(=O)N(c1ccccc1)c1cc(NC(=O)Cc2ccccc2Cl)ccn1` [Example 25, N-{4-[2-(2-chlorophenyl)acetamido]pyridin-2-yl}-N-phenylacetamide], on human P2X4, the “Human P2X4 HEK Cells” value came out at 100% and the IC50 is 0.524 µM. On rat P2X4, the IC50 came to 0.851 µM and the “Rat P2X4 1321N1 Astrocytoma Cells” value is given as 100%.

`CC(=O)N(c1ccccc1)c1cc(NC(=O)Cc2ccc(F)cc2Cl)ccn1` [Example 26, N-{4-[2-(2-chloro-4-fluorophenyl)acetamido]pyridin-2-yl}-N-phenylacetamide]: at human P2X4, the “Human P2X4 HEK Cells” value worked out at 102% and the IC50 stood at 0.66 µM. In addition, on rat P2X4, the IC50 turned out to be 0.649 µM and the “Rat P2X4 1321N1 Astrocytoma Cells” value came out at 101%.

`CC(=O)N(c1ccccc1)c1cc(NC(=O)Cc2c(Cl)cccc2Cl)ccn1` [Example 27, N-{4-[2-(2,6-dichlorophenyl)acetamido]pyridin-2-yl}-N-phenylacetamide]: on human P2X4, the “Human P2X4 HEK Cells” value amounted to 97% and the IC50 stood at 0.242 µM. For the same compound, on rat P2X4, the IC50 was determined as 0.652 µM and the “Rat P2X4 1321N1 Astrocytoma Cells” value was found to be 99%.

Regarding `CC(=O)N(c1ccc(F)cc1)c1cc(NC(=O)Cc2cccc(C)c2C)ccn1` [Example 29, N-{4-[2-(2,3-dimethylphenyl)acetamido]pyridin-2-yl}-N-(4-fluorophenyl)acetamide], on human P2X4, the “Human P2X4 HEK Cells” value came to 91% and the IC50 is 0.391 µM. Besides, at rat P2X4, the IC50 worked out at 0.0925 µM and the “Rat P2X4 1321N1 Astrocytoma Cells” value is 77%.

For `CC(=O)N(c1ccc(F)cc1)c1cc(NC(=O)Cc2ccccc2C(F)(F)F)ccn1` [Example 30, N-(4-fluorophenyl)-N-(4-{2-[2-(trifluoromethyl)phenyl]acetamido}pyridin-2-yl)acetamide], at human P2X4, the “Human P2X4 HEK Cells” value is 98% and the IC50 amounted to 0.384 µM. For the same compound, on rat P2X4, the IC50 is 0.727 µM and the “Rat P2X4 1321N1 Astrocytoma Cells” value amounted to 96%.

As for `CC(=O)N(c1ccc(F)cc1)c1cc(NC(=O)Cc2cccc(F)c2C(F)(F)F)ccn1` [Example 32, N-(4-fluorophenyl)-N-(4-{2-[3-fluoro-2-(trifluoromethyl)phenyl]acetamido}pyridin-2-yl)acetamide], at human P2X4, the “Human P2X4 HEK Cells” value is 101% and the IC50 worked out at 0.355 µM. Further, at rat P2X4, the IC50 turned out to be 0.801 µM and the “Rat P2X4 1321N1 Astrocytoma Cells” value was determined as 100%.

As for `CC(=O)N(c1ccc(F)cc1)c1cc(NC(=O)Cc2c(Cl)cccc2C#N)ccn1` [Example 33, N-{4-[2-(2-chloro-6-cyanophenyl)acetamido]pyridin-2-yl}-N-(4-fluorophenyl)acetamide], at human P2X4, the “Human P2X4 HEK Cells” value came to 93% and the 50% inhibitory concentration (IC50) amounted to 0.723 µM. Also, at rat P2X4, the IC50 was 1.54 µM and the “Rat P2X4 1321N1 Astrocytoma Cells” value is 98%.
